# Where no end group is shown, it is not given here.
# Experiments:
# [1] = system: erythrocytes of a mouse (Balb/c); test: Hemolytic activity; type: cell-based
# Description: To compare the cytotoxicity among the peptides that are produced by the method of Example 1, erythrocyte hemolytic activity of the synthesized peptide was measured.
# Specifically, erythrocytes of a mouse (Balb/c, 6 week old, female) were diluted in physiological saline (PBS, pH 7.0) to have concentration of 8%, and then subjected to a treatment with Hp1404, Hp1404-T1, Hp1404-T1a, Hp1404-T1b, Hp1404-T1c, Hp1404-T1d or Hp1404-T1e, each at concentration of 6.25, 12.5, 25.0, 50.0, 100.0 and 200.0 μM/well, respectively, followed by a reaction for 1 hour at 37° C. After that, the amount of hemoglobin contained in a supernatant collected by centrifuge at 1,000×g was determined by measuring the absorbance at a wavelength of 414 nm. As a control group to be used as a reference for cell disruption level, the supernatant collected by a treatment with 1% Triton X-100 (Sigma, USA) and a reaction for 1 hour at 37° C. was used to measure the absorbance. By setting the resulting absorbance value at 100%, the hemolytic activity of each peptide was calculated using the following mathematical formula 1. Erythrocyte disrupting ability (hemolysis) (%)=(Absorbance A−Absorbance B)/(Absorbance C−Absorbance B)×100 [Mathematical formula 1] (in the above formula, Absorbance A indicates the absorbance of a reaction solution treated with each peptide, in which the absorbance is measured at a wavelength of 414 nm; Absorbance B indicates the absorbance of a reaction solution treated with PBS, in which the absorbance is measured at a wavelength of 414 nm; and Absorbance C indicates the absorbance of a reaction solution treated with 1% Triton X-100, in which the absorbance is measured at a wavelength of 414 nm).
# [2] = Cytotoxicity in normal cell line (MTT); type: cell-based; conditions: human, HaCaT keratinocytes, read-out: Cell survival ability; for viability at 24 h, 6.25 µM: peptide concentration 6.25 μM; for viability at 24 h, 12.5 µM: peptide concentration 12.5 μM; for viability at 24 h, 25 µM: peptide concentration 25 μM; for viability at 24 h, 50 µM: peptide concentration 50 μM; for viability at 24 h, 100 µM: peptide concentration 100 μM; for viability at 24 h, 200 µM: peptide concentration 200 μM, HaCaT
# Description: To determine the cytotoxicity of the peptide produced by the method of Example 1 in normal cell line, toxicity was measured by using human keratinocytes (HaCaT cell line, Dr. N E. Fusenig, Heidelberg, Germany).
# Specifically, HaCaT cells which have been cultured in DMEM medium containing 10% FBS (Fetal Bovine Serum) were aliquoted in a 96-well plate to have 2×10^5 cells per well. After culturing them for 24 hours, the cells were subjected to a treatment with Hp1404, Hp1404-T1, Hp1404-T1a, Hp1404-T1b, Hp1404-T1c, Hp1404-T1d, or Hp1404-T1e, each at concentration of 6.25, 12.5, 25.0, 50.0, 100.0 or 200.0 μM/well, followed by reaction for 24 hours in a 5% CO2 incubator. After 24 hours, a reaction solution containing 0.5 mg/ml MTT (Thiazolyl Blue Tetrazolium Bromide) dissolved in physiological saline (PBS) was added in an amount of 100 μl to each well and the reaction was allowed to occur for 4 hours. After that, the supernatant was removed, and, by dissolving MTT crystals that are formed by adding 200 μl of DMSO (dimethyl sulfoxide), the absorbance at 560 nm was measured to determine the cell survival ability.
# E. coli = test: MIC, E. coli; type: cell-based, Escherichia coli; conditions: E. coli (ATCC 25922), 18 hours at 37° C.
# Description: (§1) To compare the antimicrobial activity among the peptides produced by the method of Example 1, the inventors of the present invention measured the minimal growth inhibitory concentration (MIC), which is minimum concentration of the peptide showing no dissociation of bacterial cells.
# (§2) Specifically, the bacterial strain described in the following Table 2 was purchased and cultured to a mid-log phase in each medium with a composition suitable for each strain. Then, after dilution to bacterial cell concentration of 2×10^4 cells/100 μl, the cells were inoculated to a microtiter plate (NUNC, USA). Thereafter, Hp1404-T1, Hp1404-T1a, Hp1404-T1b, Hp1404-T1c, Hp1404-T1d or Hp1404-T1e peptide which has been synthesized in Example 1 above was subjected to serial dilution, ½ times for each, with BSA (bovine serum albumin) solution in a 96-well plate. After adding the cells to a plate, the cells were cultured for 18 hours at 37° C. By using a microtiter plate reader (Merck Elisa reader, Germany), the absorbance was measured at a wavelength of 600 nm to determine the MIC value of each bacterial strain. As a control group, Hp1404 as a mother peptide was used.
# S. aureus = test: MIC, S. aureus; type: cell-based, Staphylococcus aureus; conditions: S. aureus (ATCC 25923), 18 hours at 37° C.
# Description: as §1, §2
# L. monocytogenes = test: MIC, L. monocytogenes; type: cell-based, Listeria monocytogenes; conditions: L. monocytogenes (KCTC 3710), 18 hours at 37° C.
# Description: as §1, §2
# [3] = system: Pseudomonas aeruginosa strain 1034; test: In vivo antimicrobial activity, infected skin wound; parameters: species or system BALB/c mouse
# Description: By using Hp1404-T1e found to have the most excellent antimicrobial activity among the peptides that are prepared by the method of Example 1, in vivo antimicrobial activity was measured. Specifically, among the Pseudomonas aeruginosa strains, strain 1034 was selected and tested. The strain was prepared by washing 3 times with PBS buffer. Ciprofloxacin antibiotic was used as a control group. A BALB/c mouse (6 week old) was shaved clean and a wound with pre-determined size was created thereon. Then, the wound site was injected intracutaneously with Pseudomonas aeruginosa strain 1034 ([…], 2×10^5 CFU/ml). After the bacterial infection, the peptide and antibiotic, each prepared at a concentration of 0.1 mg/ml and 0.2 mg/ml, respectively, were intracutaneously injected, and the observation was made everyday. On each day, the skin tissues were sampled and smeared on an NB solid medium. The smeared medium was incubated in an incubator for 18 hours, and the number of grown colonies was counted and expressed in %.
# [4] = system: lipopolysaccharide (LPS) isolated from P. aeruginosa; test: Binding ability between lipopolysaccharide (LPS) and peptide; conditions: peptide at 1×MIC
# Description: By using the peptides prepared by the method of Example 1, binding to lipopolysaccharide (LPS), which is a constitutional component of a cell wall of Gram-negative bacteria, was examined. LPS used in the present invention was isolated from P. aeruginosa. Lipopolysacchride (0 to 100 μg/ml) was diluted with 10 mM sodium phosphate buffer (pH 7.2), reacted with each peptide at a concentration of 1× or 2×MIC, and then cultured with the bacteria at 2×10^5 CFU/ml. By measuring the absorbance at 600 nm, the binding ability to the peptide was determined. Additionally, after reacting 0.1% […] with the peptide (40 μM) in an incubator, the secondary structure was examined by circular dichroism (CD) spectroscopy.
# [5] = system: S. aureus or P. aeruginosa membrane; test: Flow cytometry with propidium iodide; type: cell-based; conditions: 2×MIC, 1 hour at 37° C.
# Description: Specifically, S. aureus or P. aeruginosa was treated for 1 hour at 37° C. with the mother peptide Hp1404, or Hp1404-T1c, Hp1404-T1d or Hp1404-T1e peptide (at concentration of 2×MIC). After that, the supernatant was removed by centrifuge (10,000 rpm) and stained with propidium iodide (PI, concentration of 10 μg/ml) for 30 minutes at 4° C. Thereafter, unbound propidium iodide was removed by centrifuge, and the problem of cell aggregation phenomenon was solved by adding physiological saline (PBS) in an amount of 1 ml.
# [6] = Stability against trypsin enzyme (RP-HPLC); type: in vitro ADME; conditions: 20 nM trypsin, 37° C., read-out: amount of remaining peptide
# Description: To determine whether or not the peptides prepared by the method of Example 1 have stability against an enzyme, RP-HPLC (reverse-phase HPLC) was carried out. Specifically, 20 μg of the peptide was reacted with 100 μl of trypsin at concentration of 20 nM for 1 to 2 hours at 37° C. After the reaction, 20 μl of the reaction product was applied to RP-HPLC, and the amount of remaining peptide was examined.
# plasmid DNA (pRSETB) = test: Binding between antimicrobial peptide and DNA (gel electrophoresis); conditions: peptide/DNA ratio 0.25:1 to 4:1, 10 minutes at 37° C.
# Description: To figure out the working mechanism of the synthetic peptides of the present invention for showing the antimicrobial activity, electrophoresis was carried out to examine the possible binding of synthetic peptides, i.e., Hp1404, […], Hp1404-T1d and Hp1404-T1e, to DNA as an internal material of bacteria.
# Specifically, after reacting the plasmid DNA (pRSETB, 260 ng) with the peptide at different ratio (i.e., peptide/DNA ratio is as follows for lane number 1 to lane number 8: DNA only, 0.25:1, 0.5:1, 1:1, 1.5:1, 2:1, 3:1, and 4:1. respectively) for 10 minutes at 37° C., they were subjected to electrophoresis using 1% agarose gel followed by ethidium bromide (EtBr) staining and UV visualization.
Compound,Erythrocyte disrupting ability ([1]; peptide concentration 6.25 μM),Erythrocyte disrupting ability ([1]; peptide concentration 12.5 μM),Erythrocyte disrupting ability ([1]; peptide concentration 25 μM),Erythrocyte disrupting ability ([1]; peptide concentration 50 μM),Erythrocyte disrupting ability ([1]; peptide concentration 100 μM),"viability at 24 h, 6.25 µM [2]","viability at 24 h, 12.5 µM [2]","viability at 24 h, 25 µM [2]","viability at 24 h, 50 µM [2]","viability at 24 h, 100 µM [2]","viability at 24 h, 200 µM [2]",Minimal inhibitory concentration (E. coli),Minimal inhibitory concentration (S. aureus),Minimal inhibitory concentration (L. monocytogenes),further results
ILKKLWEGVKSI-NH2 [Hp1404-T1a],0%,0%,0%,0%,0%,100%,100%,100%,100%,100%,30.7%,–,–,–,–
ILGKLWEGVKSI-NH2 [Hp1404-T1],0%,0%,0%,0%,0%,100%,100%,100%,100%,100%,100%,>25 µM,>25 µM,>25 µM,–
"O=C(O)c1cn(C2CC2)c2cc(N3CCNCC3)c(F)cc2c1=O [ciprofloxacin, reference compound]",–,–,–,–,–,–,–,–,–,–,–,–,–,–,"wound healing ([3]; 0.1 mg/ml and 0.2 mg/ml, intracutaneous, observed everyday): no wound healing at all; number of colonies, compared with peptide treatment ([3]; treated after the bacterial infection): higher than that obtained from the peptide treatment condition"
ILKKLLEGVKSI-NH2 [Hp1404-T1b],0.07%,0.19%,0%,0%,0%,100%,100%,100%,100%,80.9%,31.9%,>25 µM,>25 µM,>25 µM,–
ILKKLLKGVKSI-NH2 [Hp1404-T1c],0%,0%,0%,0%,0%,100%,100%,100%,51.3%,48.6%,–,–,–,–,"binding to LPS, rank order [4]: binding to LPS increases in order of Hp1404-T1e, Hp1404-T1d, Hp1404-T1c, and Hp1404; propidium iodide fluorescence signal shift (membrane damage) [5]: no such shift of fluorescence signal; remaining at 1 h, 200 μg/mL ([6]; reaction for 1 hour): ≥ 80%; remaining at 2 h, 200 μg/mL ([6]; reaction for 2 hours): 80%; binding to DNA (plasmid DNA (pRSETB)): did not bind to any DNA"
